One data set deals with wounds. The note with it: disinfecting of wounds, World War II; cited from earlier work.
For data set [1] the following is noted: known; cited from earlier work.
For data set [2] the following is noted: literature; cited from earlier work.
Data set [3] is described as follows: toxicity measurements at CFLP-mice (LD50). The note with it: mouse, in vivo, female CFLP-mice. The source says: By the incorporation of one or more sugar residue(s) the toxicity of the compounds is influenced positively, too. The results of toxicity measurements carried out at CFLP-mice (female) (Litchfield, J. T. and Wilcoxon F.: J. Pharmacol. 96, 99 (1949) are summarized in the following Table.

The next data set concerns Ehrlich ascites tumor. The settings on record: Schumelfelder et al., Z. Krebsforsch, 63, 129 (1959); cited from earlier work.
In another data set the test system is Aspergillus niger. The experiment in a line: efficacy against Aspergillus niger. Format: cell-based. The method, then: (§1) The incorporation of the sugar group into the aminoacridine molecule modifies its properties in an unforeseen way. Thus e.g. 3,6-diamino-acridine and 3,6-diamino-10-methyl-acridine are efficacious in concentrations of 50 μg/ml against microorganisme (Bacillus subtilis, Salmonalla typhy-murium, Proteus vulgaris, Escherichia coli, Shigella flexneri etc.) while the diglucoside of the 3,6-diamino-acridine is inefficacious also in concentrations of 500 μg/ml against the named microorganisms. Inversely the aminoacridines are inefficacious against fungi while the diglucoside of 3,6-diamino-10-methyl-acridine is efficacious e.g. against Aspergillus funigatus and Aspergillus niger.

The subject of data set [4] is ascites tumor according to Ehrlich. The experiment in a line: test with the Ehrlich-carcinoma in mice. In kind it is in vivo. The method, then: A test with the Ehrlich-carcinoma was carried out with 50 mice each as test group and as K control group. The animals were intraperitoneally infected with 5×10^6 cells each of the ascites tumor according to Ehrlich. On the first, second and third day after the infection half of the mice were treated with 12.5 mg/kg.d of 10-methyl-proflavine-diglucoside.

A further data set relates to Aspergillus funigatus. The experiment in a line: efficacy against Aspergillus funigatus. Format: cell-based. The method, then: as §1
Another data set relates to Ehrlich tumor. The experiment in a line: inhibition and prevention of the Ehrlich tumor in mice and rats. In kind it is in vivo.
The conditions of data set [5]: decomposition product; cited from earlier work.

The source of these data is patent publication US4462993A, “Aminoacridine-α, β-(D)- or -(L)-N-glycoside derivatives, the salts thereof and a process for the preparation of such compounds” (Biogal Gyogyszergyar, priority 1981, dated 1984).

Broadly, the LD50 is the dose at which mortality reaches 50%.

Read-outs that look alike come from different tables or passages of the source.

Turning to `Nc1ccc2cc3ccc(N)cc3nc2c1` [3,6-diamino-acridine, 3,6-diaminoacridine], in the data set with wounds, the “healing of the wound” value was “slowed down the healing of the wound”. Also, in the data set with wounds, the tissue necrosis result is recorded as “caused tissue necrosis”. Besides, the antimicrobial effect entry in [1] was “exert a certain antimicrobial effect”. Also, the “mutation of certain objects” value in data set [2] was “can cause mutation of certain objects”. Further, the LD50 stood at 84 mg/kg in data set [3] (ip, read-out: LD50 i.p.) and 65 mg/kg in data set [3] (iv, read-out: LD50 i.v.).

For `C[n+]1c2cc(N)ccc2cc2ccc(N)cc21` [3,6-diamino-10-methyl-acridine], the “growth of the Ehrlich ascites tumor” value with Ehrlich ascites tumor was “inhibited”. The “healing of the wound” value in the data set on wounds is given as “slowed down the healing of the wound”. Also, the tissue necrosis result in the data set on wounds is “caused tissue necrosis”. Moreover, in [1], the antimicrobial effect result is on record as “exert a certain antimicrobial effect”. Moreover, in data set [2], the “mutation of certain objects” value is reported as “can cause mutation of certain objects”. The LD50 was 60 mg/kg in data set [3] (ip, read-out: LD50 i.p.) and 14 mg/kg in data set [3] (iv, read-out: LD50 i.v.).

`OC[C@H]1O[C@@H](Nc2ccc3cc4ccc(N[C@@H]5O[C@H](CO)[C@@H](O)[C@H](O)[C@H]5O)cc4nc3c2)[C@H](O)[C@@H](O)[C@@H]1O` [3,6-diamino-acridine-diglucoside, 3,6-Di-(β-Di-glucopyranosyl-amino)-acridine]: the LD50 is 280 mg/kg in data set [3] (ip, read-out: LD50 i.p.) and 87 mg/kg in [3] (iv, read-out: LD50 i.v.).

As to `C[n+]1c2cc(N[C@@H]3O[C@H](CO)[C@@H](O)[C@H](O)[C@H]3O)ccc2cc2ccc(N[C@@H]3O[C@H](CO)[C@@H](O)[C@H](O)[C@H]3O)cc21.[Cl-]` [3,6-Di-(β-D-glucopyranosyl-amino)-10-N-methyl-acridinium chloride], the efficacy against fungi result with Aspergillus niger and with Aspergillus funigatus was “efficacious” throughout. Besides, the “Change of body weight in g on the 7th day” value in data set [4] (12.5 mg/kg.d on first, second and third day after infection, 7th day) is listed as “+1.2 g”. In [4] (12.5 mg/kg.d on first, second and third day after infection, 12th day), the “Change of body weight in g on the 12th day” value was “+2.0 g”. Further, the “Change of body weight in g on the 21st day” value in [4] (12.5 mg/kg.d on first, second and third day after infection, 21st day) is reported as “+2.6 g”. In data set [4] (12.5 mg/kg.d, 40th day), the “treated animals still living on the 40th day” value is recorded as “all treated animals were still living”. In data set [4] (12.5 mg/kg.d, observation stopped on the 40th day), the “Average surviving time” value was 40.0 days. In addition, the “state of the animal concerning its condition” value in the data set with Ehrlich tumor (6.25 mg/kg-12.5 mg/kg i.p.) is “improves the state of the animal concerning its condition”. The “development of the Ehrlich tumor” value with Ehrlich tumor (test animals: mice and rats) was “inhibits the development of the Ehrlich tumor”. In addition, the “formation of the Ehrlich tumor” value in the data set on Ehrlich tumor (test animals: mice and rats) is “prevents its formation”. For the same compound, the LD50 came to 210 mg/kg in data set [3] (ip, read-out: LD50 i.p.) and 37 mg/kg in [3] (iv, read-out: LD50 i.v.).

In the case of `O=c1c2ccccc2[nH]c2cccc([N+](=O)[O-])c12` [1-nitroacridone], the biological activity entry in data set [5] was “biologically inactive”.
